Laboratory results published in patent US7763604B2, “Methods for administration of a farnesyl dibenzodiazepinone” (Thallion Pharma Ceuticals, Inc., priority 2005, dated 2010).

Columns and labels:
[1] = tested on: rat glioma (C6) tumor xenograft; experiment: rat C6 glioblastoma subcutaneous tumor model, antitumor efficacy; type: in vivo, female athymic (nu/nu) nude mice
Protocol: The rat C6 glioblastoma antitumor efficacy study was performed at INSERM U318 (Grenoble, France). The rat C6 glioblastoma subcutaneous tumor model is based on the use of a rat C6 cell line obtained from a rat glial tumor induced by N-nitrosomethylurea (Benda et al. (1968), Science, vol 161, 370-371). These animal studies were done according to ethical guidelines of animal experimentation (Charte du comité d'éthique du CNRS, 2003) and the English “Guidelines for the welfare of animals in experimental neoplasia (Second Edition)” from the United Kingdom Coordinating Committee on Cancer Research (UKCCCR) (Workman et al. (1998), Br. J. Cancer, vol 77, no 1, 1-10). On each dosing day, Formula I stock solutions (24 and 40 mg/mL in 20% ethanol, 20% PEG-400 and 60% Tween 80) were diluted with sterile 5% dextrose in water (D5W) to prepare dosing solutions of 6 mg/mL and 10 mg/mL of Formula I in a vehicle consisting of 5% ethanol, 5% PEG-400, 15% Tween-80, and 75% D5W.
For the rat glioma antitumor efficacy study, female athymic (nu/nu) nude mice (6-7 weeks of age) were inoculated SC with 5×10^6 C6 cells (day 0). Tumor bearing animals were randomized (10 per group) when tumors were palpable (day 6). Group 1 (control group) received drug-free vehicle (5% ethanol, 5% PEG-400, 15% Tween-80, and 75% D5W) IP (5 mL/kg), once daily on days 6-18 (q1d×13). Group 2 received Formula I (6 mg/mL) IP at 20 mg/kg, once daily on days 6 to 13 and then at 10 mg/kg once daily on days 14 to 18. Group 3 received Formula I (6 mg/mL) SC at 30 mg/kg, once daily on days 6 to 13 and then at 15 mg/kg once daily on days 14 to 18. Group 4 received Formula I (10 mg/mL) IV at 100 mg/kg q1d×5 for 2 weeks. Each animal was euthanized when its tumor reached the predetermined endpoint size (˜2,500 mm^3) or at the end of the study (D18). Treatment period was over 13 days, from day 6 to day 18, post tumor cell inoculation. Tumor growth inhibition (TGI) was calculated on day 16 post tumor cell inoculation, at which time some animals from the vehicle control group had to be sacrificed due to tumor burden.
In this model and the models of Examples 3, 6 and 7, tumor growth was followed every other day by measuring tumor length (L) and width (W) using a calliper. Measurements were converted to tumor volumes (TV; mm^3) using the standard formula, TV=(L×W^2)/2. Tumor volume at day n was expressed as relative tumor volume (RTV) according to the following formula RTV=TVn/TV0, where TVn is the tumor volume at day n and TV0 is the tumor volume at day 0. The percentage of tumor growth inhibition (% TGI) was determined by 1−(mean RTV of treated group/mean RTV of control group)×100. […] Statistical analysis was calculated by the two-tailed unpaired t test using the Prism software. […]

[2] = tested on: human glioma (U-87MG) tumor xenograft; experiment: human U-87MG glioblastoma xenograft antitumor efficacy; type: in vivo, female athymic (nu/nu) nude mice; details: SC 30 mg/kg q1d×5 over 2 weeks
From the text: In this model and the models of Examples 3, 6 and 7, tumor growth was followed every other day by measuring tumor length (L) and width (W) using a calliper. Measurements were converted to tumor volumes (TV; mm^3) using the standard formula, TV=(L×W^2)/2. Tumor volume at day n was expressed as relative tumor volume (RTV) according to the following formula RTV=TVn/TV0, where TVn is the tumor volume at day n and TV0 is the tumor volume at day 0. The percentage of tumor growth inhibition (% TGI) was determined by 1−(mean RTV of treated group/mean RTV of control group)×100. […] Statistical analysis was calculated by the two-tailed unpaired t test using the Prism software. Animals were weighed at least twice weekly during and after treatment until completion of the study. The mice were examined frequently for overt signs of any adverse drug-related side effects.
The human U-87 MG (ATCC® no. HTB-14™) glioblastoma antitumor efficacy study was performed at INSERM U318 (Grenoble, France). The U-87MG cell line is derived from a brain glioblastoma of a person. […]
For the human glioblastoma antitumor efficacy study, female athymic (nu/nu) nude mice (6-7 weeks of age) were inoculated SC with 5×10^6 U-87MG cells (day 0). […] Tumor growth inhibition (TGI) was calculated on day 34 post tumor cell inoculation, at which time some animals from the vehicle control group had to be sacrificed due to tumor burden.

[3] = maximum tolerated dose and tolerability of bolus administration in mice; type: in vivo
[4] = human pharmacokinetic parameters extrapolated from allometric equations; details: estimated from allometric equations
Protocol: An analysis was performed to derive allometric equations for Formula I pharmacokinetic parameters using Formula I plasma concentration-time data from three species, including mouse, rat, and monkey, and to estimate human pharmacokinetic parameters from those allometric equations.
Plasma concentrations of Formula I were obtained from mice, rats, and monkeys following intravenous injection or continuous infusion. Formula I pharmacokinetic parameters in mice, rats, and monkeys were estimated using population pharmacokinetic analysis, a function of the software program NONMEM™ (version 5). Typical population pharmacokinetic parameters for Formula I in humans were extrapolated from allometric equations that were derived from pharmacokinetic parameters estimated in the three animal species.
Allometric equations for the pharmacokinetic parameters clearance (CL), volume of distribution (V1 and V2), and inter-compartmental clearance (Q) were derived. The population PK parameters of the compound of Formula I for humans were extrapolated from the allometric equations, and the estimated values are shown in Table 6. Simulated Formula I plasma concentration-time profiles in humans are shown in FIG. 13 and estimated end of infusion concentrations are provided in Table 7.

CC(C)=CCC/C(C)=C/CC/C(C)=C/CN1C(=O)c2cccc(O)c2Nc2c(O)cc(O)cc21 [Formula I, 10-farnesyl-4,6,8-trihydroxy-dibenzodiazepin-11-one]
Maximum body weight loss ([1]; IP 20 mg/kg (Q1D×8) followed by 10 mg/kg (Q1D×7), Day 13): 15%
tumor volume relative to the vehicle control ([1]; IV bolus 100 mg/kg (Q1D×5) over 2 weeks): No significant difference in tumor volume
body weight loss ([1]; IV group, 100 mg/kg (Q1D×5) over 2 weeks): No significant body weight loss
Maximum body weight loss ([1]; SC 30 mg/kg (Q1D×8) followed by 15 mg/kg (Q1D×7)): 11%
body weight loss [2]: no significant body weight loss
tolerability finding ([3]; IP bolus dosing): some intestinal occlusion
tolerability finding ([3]; SC bolus dosing): swelling and thickening of the skin
Ke [4]: 1.192 h⁻¹
Q [4]: 0.533 mL/min/kg
t1/2,α [4]: 0.509 h
t1/2,β [4]: 13.8 h
